According to patent publication US8492614B2, “Plant biochemical systems and uses thereof” (The Board of Trustees of the University of Illinois, priority 2007, dated 2013):
Entries after “also recorded” stand apart in the source; their conditions may differ. Read-outs that look alike come from different tables or passages of the source.

Assays:
soybean = experiment: Long-term growth and seed yield of UV-treated soybean supplemented with Phe; assay type: in vivo, soybean (Glycine max L.); settings: Phe supplement before UV (300 nm) on day 3, grown to seed set
Description: Referring to FIG. 22, it was shown that treating soybean with Phe reverses the negative effects of UV-radiation. Seedlings were grown identically to that described for FIGS. 13 and 14, where soybean were supplemented with Phe (+Phe) or not (−Phe). Soybean were grown to seed set in greenhouse conditions where growth characteristics and evaluation of pods and seeds occurred during and after ripening.

[1] = tested on: glabrous soybean seedlings; experiment: UV sensitivity of glabrous versus dense-hair soybean isolines; assay type: in vivo; settings: few-hair (glabrous) variety, small amounts of UV
Description: Varieties that show sensitivity to UV are retained for more detailed testing of responses to UV and exogenous regulators. […] As isoline of hard soy with dense hairs was tested vs. hard soy with few (glafrous) hairs. […] Isogenic lines of Harasoy “dense” (many hairs per area) and “glabrous” (few or no hairs per area) were used to see if hairs themselves directly assisted in protection from UV-B radiation. Seedlings were grown and treated in the same manner as that shown in FIG. 18, then the integrity of the internal structures assessed by TEM as shown in FIG. 18.

Japanese beetles = experiment: Predation on Harosoy soybean grown outside, with or without Phe in the planting media; assay type: in vivo; settings: 1 mM Phe in planting media; 300 nm or no light on day 3; 21 d outside; listed as Phe
Description: As Phe is the starting substrate of the phenylpropanoid pathway it may be that inclusion of Phe in the growth media of young seedlings allows for the synthesis of many phenylpropanoids in addition to those that can act as UV-B screening pigments, and thereby prevent the deleterious effects other abiotic and biotic stress. To test this hypothesis we planted sets of seeds of Harosoy dense and Harosoy glabrous. Planting media for one set of plants of each isoline was supplemented with 1 mM final concentration of Phe. Three d after planting, germinating sets of seedlings were irradiated with a low fluence pulse of 300 nm (i.e. an abiotic stress), or no light (Untreated), then transplanted outside to grow in natural conditions for 21 d during the normal growing season. A random planting pattern for was generated for the six One leaf from the first set of leaves and one leaf (the middle of the trifoliate) from the second set of leaves was harvested on day 21. These leaves were each weighed directly (fresh weight) and scanned to have a pictorial representation of the experienced damage as shown in FIG. 28. […] Comparison among the six variations indicates predation mainly on the glabrous (hairless) plants.

[2] = tested on: etiolated Arabidopsis seedlings; experiment: Cotyledon natural fluorescence by deconvoluting microscopy; assay type: in vivo; settings: 1.0 mM Phe in medium; salt stress; mutant seedlings; listed as Phe
Description: Fluorescent images were obtained of living unfixed seedlings 24 h post BL or ABA treatment as described in the “Plant Growth and Preparation of Tissue” section. Optical sectioning was achieved by using a Zeiss Axiovert 200M microscope (Carl Zeiss), equipped with ApoTome (collected by grid projection), and a digital camera and the 4#,6-diamino-phenylindole, fluorescein isothiocyanate, and Texas Red filter sets (Chroma). Photographs of whole cotyledon fluorescence were snapped on the same microscope set up, minus the apoTome setting.
The preparation of whole cell extracts from the areal portions of the seedlings for the quantification of Phe levels and PD1 activity levels is described in (Warpeha et al., Plant Physiol. 143:1590-1600, 2007). Phe concentration is determined by HPLC. […] Natural fluorescence of the cotyledons is visualized and quantitated by deconvoluting microscopy using a “DAPI-Long Pass” filter which allows excitation between 300-380 nm and emits with a cutoff […] 400 nm.
If the Phe produced by activated PD1 is necessary for the ability of young etiolated seedlings to respond to UV-B, salt or heat stress, then it is possible that the addition of exogenous Phe (effectively cross feeding Phe) could restore a wild type response to GCR1, GPA1 and PD1 mutants when assayed for cotyledon fluorescence and the ability to survive sub-lethal levels of UV-C. To determine if exogenous Phe can restore wild type responses to GCR1, GPA, and PD1 mutants, 1 mM Phe is added to the top agar during planting and the experiment described above specifically testing for cotyledon surface fluorescence and the ability to survive sub-lethal levels of UV-C is repeated. Serine and […] are used as negative controls in these assays.
The experiments described above for examining if GCR1, GPA1 and PD1 are required for young etiolated seedlings to respond to UV-B, salt or heat stress are performed but with ABA, ACC, JA and SA substituting for UV-B, salt and heat. For these experiments, ABA is tested at 1.0 μM dissolved in ethanol and applied as an atomized mist. […]

[3] = pH 7.4
[4] = tested on: etiolated Arabidopsis gcr1, gpa1 or pd1 mutants; experiment: UV sensitivity of etiolated Arabidopsis mutants with phenylalanine added to the growth media; assay type: in vivo
[5] = Stability of absorbance spectra of cell free extracts with or without phenylalanine; assay type: physicochemical, Arabidopsis; settings: for stability of the extract solution (absorbance spectra, pigments) over time: cell free extracts in buffer, 24 h, room temperature or +4° C., lab lighting
Description: Cell free extracts were left at room temperature for 24 h after a 10^5 μmol m^−2 treatment of UV (366 nm) in lab lighting (which is fluorescent).

[6] = target: T1, prephenate dehydratase (PD1) (Arabidopsis thaliana, UniProt Q9ZUY3); experiment: Prephenate dehydratase activity in Arabidopsis cell free extracts; assay type: biochemical; settings: pre-incubation in various concentrations
T1 construct: from tissue; host or cells: aerial portions of etiolated (dark-grown) wild-type Col Arabidopsis seedlings; crude cell-free / cytosolic extract
T1 sequence (Q9ZUY3 25-424): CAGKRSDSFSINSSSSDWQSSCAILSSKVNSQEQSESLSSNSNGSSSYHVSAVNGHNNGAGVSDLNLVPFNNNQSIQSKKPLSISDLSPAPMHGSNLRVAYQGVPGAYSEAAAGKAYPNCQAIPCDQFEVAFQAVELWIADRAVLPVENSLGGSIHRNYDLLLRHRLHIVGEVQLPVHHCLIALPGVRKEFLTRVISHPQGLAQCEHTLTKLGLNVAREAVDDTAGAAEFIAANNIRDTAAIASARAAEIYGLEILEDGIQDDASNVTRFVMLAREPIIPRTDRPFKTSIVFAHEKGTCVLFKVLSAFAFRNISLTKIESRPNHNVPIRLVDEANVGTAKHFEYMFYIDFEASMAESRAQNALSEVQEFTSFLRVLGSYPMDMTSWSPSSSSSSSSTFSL
Description: 143:1590-1600). […] Absorbance and stability characteristics are tested at different pH concentrations between 6.8-8.0. Absorbance and stability characteristics are tested at different temperatures and durations of storage on the pigments and phenylalanine characteristics in solution for Arabidopsis and this is done for all crop plant types tested. The aerial portions of six-day-old dark grown Arabidopsis seedlings were harvested into potassium phosphate buffer (pH 7.5; 50 mM), DTT (1 mM), and plant protease cocktail (Sigma), and homogenized for 60 sec at a setting of #6 in a Polytron. Cell debris was removed by centrifugation. All steps were carried out at 4° C. All plants types would be harvested by this method between 6-8 days after planting in darkness. […] Production of phenylpyruvate was determined spectrophotometrically. […] See […] et al., Plant Physiol. 140:844-855.

## N[C@@H](Cc1ccccc1)C(=O)O [phenylalanine]
soybean
  long-term growth, seed set and seed yield after UV treatment: can reverse the negative effect on yield of UV; also recorded: serves a protective role to the plant in permitting the plant to achieve adult stage and seed set
soybean; listed as Phe
  long-term growth, seed set and seed yield after UV treatment: indistinguishable from untreated seedlings; also recorded: reversal of the negative effects of UV-radiation
[1]
  correction of UV damage in the glabrous variety: can correct these deficiencies
Japanese beetles
  predation on leaves: experienced less predation; also recorded: can be reduced
[2]
  restoration of cotyledon surface fluorescence in mutants: can restore the responses in the mutants to those observed for wild type seedlings; also recorded: can restore wild type responses to AGB1 and AGG1 mutants
[3]
  degradation in buffered solution: appeared to not degrade even for days
[4]
  rescue of UV sensitivity of mutants: can rescue gcr1, gpa1 or pd1 mutants
[4]; listed as Phe
  rescue of UV sensitivity of mutants: restores waxes, fatty acids, UV-absorbing materials and restores resistance to UV damage in pd1 mutants; also recorded: able to respond to UV like wild type
[5]
  stability of the extract solution (absorbance spectra, pigments) over time: remain stable over time; also recorded: clear difference in stability in the solution when phenylalanine is added
[5]; listed as Phenylalanine
  stability of the extract solution (absorbance spectra, pigments) over time: remained stable
[5]; extracts with phenylalanine added, UV (366 nm) treated, stored at +4° C. for 4 days
  deviation from initial 24 h post absorbance spectra: less than 10%
[6]
  effect of pre-incubation on the reaction producing phenylalanine: inhibited
